BindingDB's records for doi:10.1021/acs.jmedchem.8b00642 (Korea Institute of Science and Technology, 2018)

Target: 5-hydroxytryptamine receptor 7 (Homo sapiens, UniProt P34969)
Experiment: Displacement of [3H]LSD from human 5-HT7 receptor expressed in HEK cell membranes after 1.5 hrs by microbeta scintillation counting method

Chain of 5-hydroxytryptamine receptor 7 (P34969 whole entry): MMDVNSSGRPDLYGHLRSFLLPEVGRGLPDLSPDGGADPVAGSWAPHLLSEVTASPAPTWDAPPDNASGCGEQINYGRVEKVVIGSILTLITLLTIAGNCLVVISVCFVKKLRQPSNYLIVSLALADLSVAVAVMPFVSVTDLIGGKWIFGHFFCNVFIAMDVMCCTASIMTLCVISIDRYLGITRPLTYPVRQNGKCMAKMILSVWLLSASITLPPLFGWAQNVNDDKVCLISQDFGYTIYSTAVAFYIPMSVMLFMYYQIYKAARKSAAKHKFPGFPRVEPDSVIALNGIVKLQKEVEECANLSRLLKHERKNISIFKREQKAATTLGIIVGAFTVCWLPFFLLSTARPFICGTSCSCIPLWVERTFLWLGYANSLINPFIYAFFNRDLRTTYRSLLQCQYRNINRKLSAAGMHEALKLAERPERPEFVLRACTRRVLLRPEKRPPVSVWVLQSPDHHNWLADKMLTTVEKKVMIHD

- Ki: 32 nM
SMILES: Clc1ccc(-c2n[nH]c3c2CCNCC3)cc1
